Source: ChEMBL document CHEMBL1122477, “Neuroleptic activity and dopamine-uptake inhibition in 1-piperazino-3-phenylindans” (J Med Chem, 1983)

Key:
Mus musculus [1] = species: Mus musculus; assay: Assessed for thymoleptic activity by its ability to antagonize tetrabenazine ptosis in mice; format: functional
[2] = target: Norepinephrine transporter (Rattus norvegicus, UniProt Q9WTR4)
Description: (§1) Effect on synaptosomal uptake inhibition of Noradrenaline (NA)

[3] = target: T1, Sodium-dependent serotonin transporter (Rattus norvegicus, UniProt P31652); assay: Effect on synaptosomal uptake inhibition of 5-hydroxytryptamine (5-HT); format: functional
T1 sequence (P31652 whole entry): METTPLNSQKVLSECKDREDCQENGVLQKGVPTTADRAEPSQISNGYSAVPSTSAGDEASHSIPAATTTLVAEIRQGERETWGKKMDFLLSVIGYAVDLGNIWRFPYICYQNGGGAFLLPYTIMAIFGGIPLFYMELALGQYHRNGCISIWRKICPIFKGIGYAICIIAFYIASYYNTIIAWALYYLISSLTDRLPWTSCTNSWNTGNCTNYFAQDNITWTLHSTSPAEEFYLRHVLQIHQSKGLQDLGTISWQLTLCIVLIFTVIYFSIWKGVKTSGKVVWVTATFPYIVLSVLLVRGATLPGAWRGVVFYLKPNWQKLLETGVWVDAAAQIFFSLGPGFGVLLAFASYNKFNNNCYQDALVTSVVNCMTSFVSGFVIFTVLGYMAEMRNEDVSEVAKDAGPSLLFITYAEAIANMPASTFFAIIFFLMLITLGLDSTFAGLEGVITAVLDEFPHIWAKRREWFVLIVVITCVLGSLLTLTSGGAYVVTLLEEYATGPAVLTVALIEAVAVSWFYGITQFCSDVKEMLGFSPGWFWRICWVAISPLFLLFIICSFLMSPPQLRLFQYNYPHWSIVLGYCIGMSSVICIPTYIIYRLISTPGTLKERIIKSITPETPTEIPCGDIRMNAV

Mus musculus [4] = species: Mus musculus
Description: (§2) Compound (administered intraperitoneally) was assessed for neuroleptic activity to antagonize methyl phenidate induced stereotypes in mice

Rattus norvegicus [5] = species: Rattus norvegicus
Description: (§3) Ability to induce catalepsy in rats perorally, an effect normally related to clinical extrapyramidal side effects

[6] = target: Sodium-dependent dopamine transporter (Rattus norvegicus, UniProt P23977)
Sodium-dependent dopamine transporter, sequence (P23977 whole entry): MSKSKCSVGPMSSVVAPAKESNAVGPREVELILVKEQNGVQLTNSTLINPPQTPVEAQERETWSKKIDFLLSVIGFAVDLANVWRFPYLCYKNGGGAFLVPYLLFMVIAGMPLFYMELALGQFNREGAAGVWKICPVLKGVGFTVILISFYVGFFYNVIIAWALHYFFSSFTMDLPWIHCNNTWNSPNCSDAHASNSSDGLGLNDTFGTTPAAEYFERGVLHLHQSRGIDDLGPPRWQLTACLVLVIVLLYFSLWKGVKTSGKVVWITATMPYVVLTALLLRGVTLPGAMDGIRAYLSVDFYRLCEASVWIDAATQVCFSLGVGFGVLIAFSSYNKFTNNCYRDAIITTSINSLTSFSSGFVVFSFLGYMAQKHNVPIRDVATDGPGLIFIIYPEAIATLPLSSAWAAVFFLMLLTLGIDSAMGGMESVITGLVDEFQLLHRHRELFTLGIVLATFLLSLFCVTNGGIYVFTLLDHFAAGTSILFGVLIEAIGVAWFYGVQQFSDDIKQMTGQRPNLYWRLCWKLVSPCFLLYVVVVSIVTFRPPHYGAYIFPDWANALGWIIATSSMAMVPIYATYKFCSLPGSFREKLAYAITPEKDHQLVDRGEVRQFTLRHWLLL
Description: Effect on synaptosomal uptake inhibition of Dopamine transporter

Rattus norvegicus [7] = assay: Tested orally in rats for antagonism of stereotypies induced by amphetamine; format: functional
[8] = target: T1, Sodium-dependent serotonin transporter
Mus musculus [9] = species: Mus musculus; assay: animal or person; conditions: ip
Description: as §2

Rattus norvegicus [10] = species: Rattus norvegicus; assay: animal or person; conditions: po
Description: as §3

Adrenergic receptor beta = Adrenergic receptor beta (Rattus norvegicus, UniProt P18090+P10608+P26255)
Description: as §1

[11] = Rattus norvegicus, po, read-out: ED50

Norepinephrine transporter, sequence (Q9WTR4 whole entry): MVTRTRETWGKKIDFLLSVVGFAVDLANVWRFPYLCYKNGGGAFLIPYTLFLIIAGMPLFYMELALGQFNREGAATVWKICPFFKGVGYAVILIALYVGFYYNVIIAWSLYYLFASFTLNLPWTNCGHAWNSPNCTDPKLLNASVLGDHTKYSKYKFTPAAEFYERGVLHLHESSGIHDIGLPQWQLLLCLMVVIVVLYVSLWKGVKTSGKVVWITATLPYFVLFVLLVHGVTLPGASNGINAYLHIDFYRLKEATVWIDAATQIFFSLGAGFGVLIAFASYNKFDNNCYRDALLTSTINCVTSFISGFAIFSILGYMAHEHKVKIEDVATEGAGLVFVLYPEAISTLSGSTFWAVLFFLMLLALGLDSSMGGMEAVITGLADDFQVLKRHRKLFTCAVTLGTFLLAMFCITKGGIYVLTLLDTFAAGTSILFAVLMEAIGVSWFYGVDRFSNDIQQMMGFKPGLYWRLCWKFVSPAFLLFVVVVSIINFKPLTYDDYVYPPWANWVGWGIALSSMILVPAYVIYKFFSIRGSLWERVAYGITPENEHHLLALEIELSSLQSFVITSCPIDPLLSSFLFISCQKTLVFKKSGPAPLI
Description for Dopamine receptor: Effect on synaptosomal uptake inhibition of Dopamine receptor

Cl.Cl.OCCCN1CCN(C2CC(c3ccc(Cl)c(Cl)c3)c3ccccc32)CC1 (configuration not stated)
ED50 (Mus musculus [1]): 71 µM/kg
IC50 [2]: 0.3 nM
IC50 (Dopamine receptor): 5.6 nM
IC50 [3]: 440 nM

Fc1ccc(C2CC(N3CCN(CCc4ccccc4)CC3)c3cc(F)ccc32)cc1 (trans isomer)
ED50 (Mus musculus [4]): 37 µM/kg

Cl.Cl.OCCN1CCN(C2CC(c3ccc(F)cc3)c3ccc(C(F)(F)F)cc32)CC1 (cis isomer)
ED50 (Mus musculus [4]): >80 µM/kg
ED50 (Rattus norvegicus [5]): >166 µM/kg
IC50 [6]: 93 nM

CN1CCN(C2CC(c3ccc(F)cc3)c3ccc(F)cc32)CC1.Cl.Cl (stereo in doubt; 56)
ED50 (Mus musculus [4]): >95 µM/kg
ED50 (Rattus norvegicus [7]): >95 µM/kg
IC50 [8]: 6100 nM
IC50 [6]: 110 nM

Cl.Cl.OCCN1CCN(C2CC(c3ccc(Cl)c(Cl)c3)c3ccccc32)CC1 (trans isomer)
ED50 (Mus musculus [1]): 45 µM/kg
IC50 [2]: 8.2 nM
IC50 (Dopamine receptor): 2.8 nM
IC50 [3]: 210 nM

Cc1ccc([C@@H]2C[C@@H](N3CCN(CCO)CC3)c3cc(C(F)(F)F)ccc32)cc1 (relative stereo)
ED50 (Mus musculus [9]): 42 µmol/kg
ED50 (Rattus norvegicus [7]; [11]): 64 µmol/kg
ED50 (Rattus norvegicus [10]): > 81 µmol/kg

Cl.Cl.OCC(CO)N1CCN(C2CC(c3ccc(F)cc3)c3ccc(F)cc32)CC1 (trans isomer)
ED50 (Mus musculus [4]): 4.2 µM/kg
ED50 (Rattus norvegicus [7]; [11]): 25 µmol/kg
ED50 (Rattus norvegicus [10]): 124 µmol/kg

OCCN1CCN([C@@H]2C[C@@H](c3ccc(Cl)cc3)c3ccc(C(F)(F)F)cc32)CC1 (relative stereo)
ED50 (Mus musculus [9]): 40 µmol/kg
ED50 (Rattus norvegicus [7]; [11]): 22 µmol/kg
ED50 (Rattus norvegicus [10]): 29 µmol/kg

CN1CCN(C2CC(c3ccc(Cl)c(Cl)c3)c3ccccc32)CC1.Cl.Cl (single isomer, unassigned; 96)
ED50 (Mus musculus [1]): 26 µM/kg
IC50 [2]: 7.8 nM
IC50 (Dopamine receptor): 10 nM
IC50 [3]: 230 nM

Cl.Cl.OCC(CO)N1CCN(C2CC(c3ccc(F)cc3)c3ccc(F)cc32)CC1 (stereo in doubt; 77)
ED50 (Mus musculus [4]): >43 µM/kg

OCCN1CCN(C2CC(c3ccc(F)cc3)c3ccc(F)cc32)CC1 (configuration not stated)
ED50 (Mus musculus [4]): >112 µM/kg
ED50 (Rattus norvegicus [7]): >112 µM/kg
IC50 (Adrenergic receptor beta): 140 nM
IC50 [8]: 9700 nM

Cl.Cl.Fc1ccc(C2CC(N3CCN(CC4CC4)CC3)c3cc(F)ccc32)cc1 (stereo in doubt; 59)
ED50 (Mus musculus [4]): 11 µM/kg
ED50 (Rattus norvegicus [7]; [11]): 36 µmol/kg
ED50 (Rattus norvegicus [10]): 53 µmol/kg

CC(O)CN1CCN(C2CC(c3ccc(F)cc3)c3ccc(F)cc32)CC1.Cl.Cl (stereo in doubt; 72)
ED50 (Mus musculus [4]): 45 µM/kg

Cl.Cl.Clc1ccc(C2CC(N3CCN(C/C=C/c4ccccc4)CC3)c3ccccc32)cc1Cl (stereo in doubt; 104)
ED50 (Mus musculus [1]; Mus musculus, read-out: ED50): > 75 µmol/kg
IC50 (Dopamine receptor): 100 nM

CN1CCN(C2CC(c3ccc(F)cc3)c3ccc(F)cc32)CC1.Cl.Cl (stereo in doubt; 53)
ED50 (Mus musculus [4]): 11 µM/kg
ED50 (Rattus norvegicus [7]): 37 µM/kg
IC50 [8]: 2000 nM
ED50 (Rattus norvegicus [5]): 202 µM/kg
IC50 [6]: 180 nM

CN1CCN(C2CC(c3ccc(F)cc3)c3ccc(F)cc32)CC1.Cl.Cl (single isomer, unassigned; (+))
ED50 (Mus musculus [4]): 2.5 µM/kg
ED50 (Rattus norvegicus [7]): 15 µM/kg
IC50 [8]: 4000 nM
ED50 (Rattus norvegicus [5]): 41 µM/kg
IC50 [6]: 1800 nM

CN1CCN(C2Cc3ccccc3Sc3ccc(Cl)cc32)CC1 (configuration not stated) [CLOROTEPINE]
ED50 (Mus musculus [9]): 6.7 µmol/kg
ED50 (Rattus norvegicus [7]; [11]): 0.56 µmol/kg
ED50 (Rattus norvegicus [10]): 4.5 µmol/kg

Cc1ccc2c(c1)C(N1CCN(CCO)CC1)CC2c1ccc(F)cc1 (trans isomer)
ED50 (Mus musculus [9]): 7.6 µmol/kg
ED50 (Rattus norvegicus [7]; [11]): 21 µmol/kg
ED50 (Rattus norvegicus [10]): 17 µmol/kg

Cl.Cl.OCCN1CCN(C2CC(c3ccc(F)cc3)c3ccc(F)cc32)CC1 (configuration not stated)
ED50 (Mus musculus [4]): 7 µM/kg
ED50 (Rattus norvegicus [7]): 14 µM/kg
ED50 (Rattus norvegicus [10]): 184 µmol/kg
IC50 (Adrenergic receptor beta): 150 nM
IC50 [8]: 2300 nM

CCN1CCN(C2CC(c3ccc(F)cc3)c3ccc(F)cc32)CC1.Cl.Cl (cis isomer)
ED50 (Mus musculus [4]): >96 µM/kg

OCCN1CCN([C@@H]2C[C@@H](c3ccccc3)c3ccc(C(F)(F)F)cc32)CC1 (relative stereo)
ED50 (Mus musculus [9]): 4.7 µmol/kg
ED50 (Rattus norvegicus [7]; [11]): 10.4 µmol/kg
ED50 (Rattus norvegicus [10]): 5.7 µmol/kg

Cl.Cl.OCCN1CCN(C2CC(c3ccc(Cl)c(Cl)c3)c3ccccc32)CC1 (cis isomer)
ED50 (Mus musculus [1]; Mus musculus, read-out: ED50): 72 µmol/kg
IC50 [2]: 10 nM
IC50 (Dopamine receptor): 12 nM
IC50 [3]: 600 nM

CN1CCN(C2CC(c3ccc(F)cc3)c3ccc(F)cc32)CC1.Cl.Cl (stereo in doubt; 55)
ED50 (Mus musculus [4]): 42 µM/kg
ED50 (Rattus norvegicus [7]): >200 µM/kg
IC50 [8]: 630 nM
ED50 (Rattus norvegicus [5]): >790 µM/kg
IC50 [6]: 88 nM

Cl.Cl.OCCN1CCN(C2CC(c3ccc(Cl)cc3Cl)c3ccccc32)CC1 (trans isomer)
ED50 (Mus musculus [1]; Mus musculus, read-out: ED50): > 86 µmol/kg
IC50 (Dopamine receptor): 4500 nM

Cl.Cl.Fc1ccc(C2CC(N3CCN(CC4CC4)CC3)c3cc(F)ccc32)cc1 (stereo in doubt; 60)
ED50 (Mus musculus [4]): >91 µM/kg

OCCN1CCN(C2CC(c3ccc(F)cc3)c3cc(F)ccc32)CC1 (trans isomer)
ED50 (Mus musculus [9]): 14 µmol/kg
ED50 (Rattus norvegicus [7]; [11]): > 93 µmol/kg
ED50 (Rattus norvegicus [10]): > 93 µmol/kg

CN1CCN(C2CC(c3ccc(Cl)c(Cl)c3)c3ccccc32)CC1.Cl.Cl (single isomer, unassigned; 95)
ED50 (Mus musculus [1]): >91 µM/kg
IC50 [2]: 120 nM
IC50 (Dopamine receptor): 340 nM
IC50 [3]: 2500 nM

COc1ccc2c(c1)C(N1CCN(CCO)CC1)CC2c1ccc(F)cc1 (trans isomer)
ED50 (Mus musculus [9]): 19 µmol/kg
ED50 (Rattus norvegicus [7]; [11]): 38 µmol/kg
ED50 (Rattus norvegicus [10]): 102 µmol/kg
